We go through five compounds from ChEMBL document CHEMBL1201862, “PubChem BioAssay data set” (2004).

Experiment [1] can be described thus: Luminescence Cell-Based Dose Response HTS to Identify Inhibitors of 5'UTR Stem-Loop Driven Prion Protein mRNA Translation in H4 Neuroglioblastoma Cells. [Related pubchem assays: 1827 (Project Summary), 1813 (Primary HTS)]. Type of experiment: functional.
Experiment [2] can be described thus: alpha-synuclein stem-loop luciferase translation blockers – H4 neuroglioma cells, luminescence, confirmation (AID 1988). Format: functional, cell-based.
Experiment [3] addresses T1, Zinc finger protein mex-5 (Caenorhabditis elegans, UniProt Q9XUB2).
T1 sequence (Q9XUB2 whole entry): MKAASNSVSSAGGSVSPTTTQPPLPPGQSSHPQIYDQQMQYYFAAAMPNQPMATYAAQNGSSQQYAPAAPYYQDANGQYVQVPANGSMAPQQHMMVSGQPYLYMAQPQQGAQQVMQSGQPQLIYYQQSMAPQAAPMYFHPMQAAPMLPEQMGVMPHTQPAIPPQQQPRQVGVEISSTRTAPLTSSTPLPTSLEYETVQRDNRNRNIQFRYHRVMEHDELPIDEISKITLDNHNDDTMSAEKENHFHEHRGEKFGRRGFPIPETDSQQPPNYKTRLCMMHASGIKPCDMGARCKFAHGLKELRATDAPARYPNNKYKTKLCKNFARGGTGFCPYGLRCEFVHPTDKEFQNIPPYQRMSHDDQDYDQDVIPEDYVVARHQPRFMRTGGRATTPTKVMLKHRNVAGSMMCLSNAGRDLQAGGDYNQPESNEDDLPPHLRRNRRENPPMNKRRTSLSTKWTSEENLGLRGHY
The experiment is described as follows: potency of MEX-5 RNA-binding blockers – biochemical, C. elegans, fluorescence polarization, dose response (AID 1960).

The test system of experiment [4] is Streptococcus sp. 'group A'. The experiment is described as follows: Streptococcus pyogenes SK(-)GAS viability under kanamycin – luminescence, BacTiterGlo, confirmation, counter-screen for streptokinase expression inhibitor project, dose response (AID 1900). Format: functional, organism-based. On the technique in general: The purpose of a counterscreen is to sort out artefacts and off-target activity.

Experiment [5] deals with T2, Replicative DNA helicase DnaB (Mycobacterium tuberculosis, UniProt P9WMR3).
T2 sequence (P9WMR3 whole entry): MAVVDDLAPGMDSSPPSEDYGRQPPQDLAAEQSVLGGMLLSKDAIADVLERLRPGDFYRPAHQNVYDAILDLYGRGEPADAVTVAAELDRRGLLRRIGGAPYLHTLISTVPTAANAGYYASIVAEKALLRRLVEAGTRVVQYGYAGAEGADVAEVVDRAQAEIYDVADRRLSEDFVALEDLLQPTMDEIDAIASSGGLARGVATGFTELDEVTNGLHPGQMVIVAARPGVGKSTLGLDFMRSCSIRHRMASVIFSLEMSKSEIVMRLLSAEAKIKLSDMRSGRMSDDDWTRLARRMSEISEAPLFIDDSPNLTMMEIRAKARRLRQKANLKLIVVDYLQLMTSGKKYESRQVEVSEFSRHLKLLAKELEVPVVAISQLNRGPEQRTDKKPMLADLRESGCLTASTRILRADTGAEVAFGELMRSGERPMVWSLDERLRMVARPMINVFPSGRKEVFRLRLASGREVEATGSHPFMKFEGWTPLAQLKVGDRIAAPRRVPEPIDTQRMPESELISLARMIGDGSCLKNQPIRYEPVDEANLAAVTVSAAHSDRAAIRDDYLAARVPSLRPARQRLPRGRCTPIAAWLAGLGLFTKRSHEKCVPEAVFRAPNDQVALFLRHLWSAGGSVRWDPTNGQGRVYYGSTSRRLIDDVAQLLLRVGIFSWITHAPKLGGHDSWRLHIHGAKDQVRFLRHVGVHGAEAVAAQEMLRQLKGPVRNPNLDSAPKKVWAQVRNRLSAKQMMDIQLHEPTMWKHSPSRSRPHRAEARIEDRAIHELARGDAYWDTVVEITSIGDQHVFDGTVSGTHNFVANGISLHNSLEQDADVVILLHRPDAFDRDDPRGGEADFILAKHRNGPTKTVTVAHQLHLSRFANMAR
The experiment is described as follows: DnaB intein splicing inhibitors, dose response, biochemical, cell-free fluorescence (AID 449749). Format: functional.

Experiment [6] deals with T3, Histone-lysine N-methyltransferase NSD2 (Homo sapiens, UniProt O96028).
T3 sequence (O96028 whole entry): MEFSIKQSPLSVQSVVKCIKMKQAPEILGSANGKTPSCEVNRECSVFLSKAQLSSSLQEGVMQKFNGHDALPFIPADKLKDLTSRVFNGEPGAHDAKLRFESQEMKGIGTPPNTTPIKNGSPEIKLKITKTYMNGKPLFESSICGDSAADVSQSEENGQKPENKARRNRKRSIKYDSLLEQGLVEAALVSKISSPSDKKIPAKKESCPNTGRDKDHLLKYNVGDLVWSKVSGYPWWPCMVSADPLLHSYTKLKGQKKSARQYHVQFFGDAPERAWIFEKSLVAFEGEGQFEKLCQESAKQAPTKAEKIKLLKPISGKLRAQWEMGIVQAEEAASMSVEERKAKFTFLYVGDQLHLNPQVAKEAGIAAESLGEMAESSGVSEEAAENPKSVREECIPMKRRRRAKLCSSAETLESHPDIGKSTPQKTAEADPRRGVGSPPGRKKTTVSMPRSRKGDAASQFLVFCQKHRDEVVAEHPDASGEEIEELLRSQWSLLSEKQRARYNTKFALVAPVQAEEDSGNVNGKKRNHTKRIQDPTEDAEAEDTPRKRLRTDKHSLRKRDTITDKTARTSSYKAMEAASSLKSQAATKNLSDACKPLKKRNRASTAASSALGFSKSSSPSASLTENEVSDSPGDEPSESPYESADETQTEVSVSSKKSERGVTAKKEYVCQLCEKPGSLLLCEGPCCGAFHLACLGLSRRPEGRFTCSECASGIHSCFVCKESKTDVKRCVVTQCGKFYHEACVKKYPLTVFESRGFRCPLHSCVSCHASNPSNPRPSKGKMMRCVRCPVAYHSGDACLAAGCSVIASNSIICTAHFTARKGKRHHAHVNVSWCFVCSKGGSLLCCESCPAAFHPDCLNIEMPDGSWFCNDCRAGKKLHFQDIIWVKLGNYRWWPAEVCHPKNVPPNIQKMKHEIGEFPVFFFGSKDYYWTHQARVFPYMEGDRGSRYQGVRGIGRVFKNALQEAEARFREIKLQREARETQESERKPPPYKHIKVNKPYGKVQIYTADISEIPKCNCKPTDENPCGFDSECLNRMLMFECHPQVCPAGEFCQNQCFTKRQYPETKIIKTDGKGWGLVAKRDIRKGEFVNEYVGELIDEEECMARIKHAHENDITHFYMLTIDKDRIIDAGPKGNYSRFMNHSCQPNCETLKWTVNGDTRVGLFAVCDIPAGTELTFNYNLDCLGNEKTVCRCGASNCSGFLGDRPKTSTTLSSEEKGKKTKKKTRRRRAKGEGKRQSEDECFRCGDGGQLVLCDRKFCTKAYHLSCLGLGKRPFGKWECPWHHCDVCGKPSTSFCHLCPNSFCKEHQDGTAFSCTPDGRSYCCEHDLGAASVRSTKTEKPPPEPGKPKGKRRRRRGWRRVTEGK
Type of experiment: biochemical.

In experiment [7] the target is Serine/threonine-protein kinase pim-2 (Homo sapiens, UniProt Q9P1W9). Format: functional.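 Further: value comes from a broad kinase panel profiling study in which PIM2 was one of the panel members.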
Chain of Serine/threonine-protein kinase pim-2 (Q9P1W9 whole entry): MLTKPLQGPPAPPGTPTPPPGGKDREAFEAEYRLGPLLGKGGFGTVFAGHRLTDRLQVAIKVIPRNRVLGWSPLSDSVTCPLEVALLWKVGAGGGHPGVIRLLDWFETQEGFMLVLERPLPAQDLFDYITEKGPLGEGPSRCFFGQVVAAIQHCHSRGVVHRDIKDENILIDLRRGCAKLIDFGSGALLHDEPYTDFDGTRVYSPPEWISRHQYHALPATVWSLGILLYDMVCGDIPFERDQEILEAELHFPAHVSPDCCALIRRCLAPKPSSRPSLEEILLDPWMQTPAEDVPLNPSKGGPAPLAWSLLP

Calls of active or inactive are those of the source. For most assays here, no stated cut-off is given here; in the data, actives have a measured EC50 and inactives only a lower limit.

Regarding `CC(=O)N(C1=C(Cl)C(=O)c2ccccc2C1=O)C1CCCCC1`, the half-maximal effective concentration (EC50) (in general, the midpoint of the concentration-response curve) is 20.5 µM (active) in experiment [1], > 120 µM (not active) in experiment [2], 8.18 µM (active) in experiment [3] and 6.92 µM (active) in experiment [4]. The concentration at half-maximal activity (AC50) (commonly the midpoint of the concentration-response curve, whichever way the signal moves) in experiment [5] was 2.98 µM (active).

Consider `Oc1ccc(-c2cn3c(n2)SCC3)cc1O`, for which the AC50 in experiment [6] was 2.95 µM (active). Also, the EC50 in experiment [3] is 1.77 µM (active).

`O=C1Nc2ccc3ncsc3c2C1=CNc1ccc(S(=O)(=O)Nc2ccccn2)cc1`: the Ki (usually the dissociation constant of the complex between target and ligand, obtained from inhibition or displacement) in experiment [7] was 1 µM (active).

Consider `Cc1ccc(NC2=C/C(=N\S(=O)(=O)c3cccs3)c3ccccc3C2=O)c(C)c1`, for which the concentration giving a half-maximal response (EC50) in experiment [1] is 8.59 µM (inconclusive); in experiment [2], 8.43 µM (inconclusive); in experiment [4] it was 2.99 µM (active). For the same compound, the AC50 in experiment [5] is 0.339 µM (active).

Take `COc1ccc(/C=N/NC(=O)c2nn(-c3ccccc3)c(=O)c3c(N)scc23)cc1`: the AC50 in experiment [6] was > 20 µM (inactive).
